Reference: patent US20130072527A1, “METHODS OF USING SUSTAINED RELEASE AMINOPYRIDINE COMPOSITIONS” (Acorda Therapeutics, Inc., priority 2008, published 2013)
Read-outs that look alike come from different tables or passages of the source.

Key:
[1] = 14C-4-aminopyridine single oral dose in rats (HWI 6379-101); details: for tissue-to-blood ratio: rat, oral dose; for AUC / Tmax / t1/2: rats, 1 mg/kg single oral
Method: Studies were performed in rats and dogs using ^14C-labeled 4-aminopyridine (1 mg/kg) given as a single oral gavage dose in solution.
In a single-dose study, rats were administered ^14C-labeled 4-aminopyridine (1 mg/kg) p.o. Three animals per time point were sacrificed 1, 3, 8, and 24 hours post-dose. Blood was collected and tissues were excised for determination of radioactivity.

[2] = 14C-4-aminopyridine single oral dose in dogs (HWI 6379-102); format: in vivo; details: for AUC / Tmax / t1/2: dogs, 1 mg/kg single oral
Description: In both species, 14C 4-aminopyridine was rapidly absorbed.

[3] = tested on: patients with multiple sclerosis; test: Phase 3 study MS-F204: Timed 25 Foot Walk (Timed Walk Response); format: in vivo, human
[4] = tested on: chronically injured spinal cord; details: (941 ng/mL); Shi et al., 1997; cited from earlier work
[5] = tested on: patients with multiple sclerosis; test: Phase 3 study MS-F204: leg strength (LEMMT); format: in vivo, human
Description: (§1) The period of efficacy evaluation (visits 2-6) included 8 weeks of twice daily treatment. An additional week was incorporated to allow pharmacodynamic evaluation at Visit 7, which was not part of the primary endpoint. (See FIG. 1 for study design). In particular, this study is a double-blind, placebo-controlled, parallel group, 13-week study (one week post screening, two weeks of single-blind placebo run-in, eight weeks of double-blind treatment, and two weeks of follow-up) in patients with multiple sclerosis. […] One of the goals of this study is to confirm the primary outcome measure in a second prospective study, and equal randomization is the most efficient way to test this outcome. […] In order to ensure at least 184 patients complete the study, approximately 100 patients were randomized to each group.
Secondary Outcome. The prospectively defined secondary outcome was leg strength, measured by Lower Extremity Manual Muscle Test (LEMMT) in 8 muscle groups, comparing the treated Timed Walk Responders and Timed Walk Non-Responders with placebo-treated patients.
[…] (p-values compared to placebo). […] (Analyzed by t-tests of the least-squares means using the mean square error via an ANOVA model with effects for responder analysis group and center.)

[6] = Single-dose pharmacokinetics in healthy volunteers; details: administered orally
[7] = Rat i.v. and p.o. pharmacokinetics 2 mg/kg (M 2001-03); details: for Vdss: single p.o. dose 2 mg/kg; for bioavailability: rat, plasma, oral, 2 mg/kg
[8] = tested on: normal adult myelinated axons; details: Shi and Blight, 1997, cited from earlier work
[9] = Oral administration of non-sustained release 4-aminopyridine in animals
[10] = Single- and repeated-dose toxicity studies; format: in vivo; details: orally administered; most often
Method: Toxicology. In single- and repeated-dose toxicity studies, the dosing regimen greatly affected the rate of mortality and incidence of clinical signs in all species studied (with the possible exception of the mouse). In general, higher mortality rates and greater incidences of adverse clinical signs were noted when 4-aminopyridine was administered in a single large dose as compared to when the same total dose was given as two, three, or four equally divided sub-doses. Toxic responses to orally administered 4-aminopyridine were rapid in onset, most often occurring within the first 2 hours post-dose.
These clinical signs were not unexpected and represent exaggerated pharmacology of 4-aminopyridine.

[11] = tested on: patients with multiple sclerosis; test: Phase 3 study MS-F204: other measures (MSWS-12, SGI, CGI, Ashworth score); format: in vivo, human
Description: as §1
Other measures. A number of other measures, not powered for statistical comparison, were included for integrated analyses across studies: MSWS-12, SGI, CGI, Ashworth score.
Spasticity may be assessed in addition to walking speed and leg strength. When assessed, spasticity is evaluated at the screening visit and each subsequent visit using the Ashworth Spasticity Score. Preferably, the evaluation is prior to the LEMMT and includes evaluation of six lower extremity muscle groups; knee flexors, knee extensors and hip adductors on both the right and left side of the body. […]

[12] = In situ absorption study (stomach, small intestine); format: in vivo
Description: Absorption. 4-Aminopyridine is rapidly absorbed following oral administration.

[13] = Raoof et al., 1997, cited from earlier work
[14] = Plasma protein binding of fampridine
[15] = one hour post-dose, 1 mg/kg p.o.

With ^14C-4-Aminopyridine the “radioactive dose in the carcass” value ([1]; 3 hours post-dose, 1 mg/kg p.o.) was 15.4%, the tissue-to-blood ratio ([1]; cerebellum) was 1.48 and the tissue-to-blood ratio ([1]; cerebrum) was 3.07. For the same compound, the “dose accounted for in total (radioactivity)” value [1, 15] was 58.3%, the “radioactivity in blood, % of dose” value [1, 15] was 0.7% and the “radioactivity in kidney, % of dose” value [1, 15] was 1.6%. The “radioactivity in liver, % of dose” value [1, 15] was 2.6%, the “radioactivity in the carcass” value [1, 15] was 51% and the AUC ([1]; females) was 506 ± 63.3 ng·h/mL. It also gave a Tmax ([1]; females) of 0.5 h, a t1/2 ([1]; females) of 1.4 ± 0.17 h and an AUC ([1]; males) of 498 ± 17.6 ng·h/mL. It also gave a Tmax ([1]; males) of 1.0 h, a t1/2 ([1]; males) of 1.1 ± 0.04 h and an AUC ([2]; females) of 1920 ± 150 ng·h/mL. It also gave a Tmax ([2]; females) of 0.8 ± 0.3 h, a t1/2 ([2]; females) of 1.8 ± 0.04 h and an AUC ([2]; males) of 2030 ± 406 ng·h/mL. The Tmax ([2]; males) was 1.0 ± 0 h, the t1/2 ([2]; males) was 2.1 ± 0.14 h and the “Cmax and AUC in the dog relative to the rat” value ([2]; doses equal on a mg/kg basis (1 mg/kg oral)) was “approximately four-fold higher”.

`Nc1ccncc1` [4-aminopyridine] showed an elimination half-life ([1]; blood) of 1.21 h, an elimination half-life ([1]; cerebellum) of 1.24 h and an elimination half-life ([1]; cerebrum) of 1.63 h. For the same compound, the “Timed Walk response rate” value ([3]; 10 mg b.i.d., with concomitant interferons, natalizumab, or glatiramer acetate (n=70)) was 42.9%, the “Timed Walk response rate” value ([3]; 10 mg b.i.d., without concomitant immunomodulators (n=49)) was 42.9% and the “improvement in walking speed from baseline” value ([3]; Timed Walk Responders, throughout the treatment period) was “approximately 25%”. The “proportion of MS patients with consistently improved walking speed (Timed Walk Response)” value ([3]; eight weeks of treatment, 10 mg b.i.d.) was 42%, the most effective concentration [4] was “about 10 μM” and the “leg strength (LEMMT) versus placebo treated or Timed Walk Responder groups” value ([5]; Fampridine-treated Timed Walk Non-Responders) was “not significantly different”. For the same compound, the “leg strength (LEMMT) versus placebo-treated patients” value ([5]; Timed Walk Responders, p=0.028) was “significantly improved”, the “absorption from the gastrointestinal tract” value [6] was “completely absorbed” and the Vdss ([7]; female rats) was 947.5 mL. It also gave a bioavailability ([7]; female) of ~55%, a Vdss ([7]; male rats) of 1094.4 mL and a bioavailability ([7]; male) of ~66.5%. The “Vdss difference between males and females adjusted for body weight” value ([7]; rats, 2 mg/kg p.o.) was 2%, the “Vdss lower in females than in males” value ([7]; rats, 2 mg/kg p.o., not statistically significant) was 13% and the “peak plasma concentrations lower in females than in males” value ([7]; rats, oral administration) was 38%. The “concentration below which the action potential shows little or no sensitivity” value ([8]; (9.4 μg/mL)) was “below 100 μM”, the “concentration causing gradual depolarization of the axon resting potential” value ([8]; (94.1 μg/mL)) was “above 1 mM” and the “time of peak plasma concentrations after dosing” value [9] was ≤ 1 h. The “onset of toxic responses post-dose” value [10] was ≤ 2 h, the “MSWS-12 score, SGI, and CGI” value ([11]; among Timed Walk Responders but not Timed Walk Non-Responders) was “improvement” and the “Ashworth Score compared to the placebo treated group” value ([11]; significant in an unplanned analysis) was “improvement”. For the same compound, the half-life ([12]; small intestine) was 0.67 h, the half-life ([12]; stomach) was 1.81 h and the “regional apparent permeability coefficient (papp×10^−6, cm/sec)” value ([13]; large intestine) was 2.9 ×10^−6 cm/sec. The “regional apparent permeability coefficient (papp×10^−6, cm/sec)” value ([13]; upper small intestine) was 22.7 ×10^−6 cm/sec and the fraction unbound [14] was 0.97 to 0.99.
